Read-outs that look alike come from different tables or passages of the source.
Experiments:
[1] = test system: sciatic nerve entrapment (SNE) neuropathy; assay: SNE neuropathy, mechanical allodynia (von Frey); type: in vivo, rat; details: for effect on contralateral hindpaw withdrawal thresholds / effect on SNE-induced mechanical allodynia (ipsilateral hindpaw withdrawal thresholds) / SNE Neuropath Assay-% return to pre-drug (0.3 mg/kg) contralateal threshold at 2-3 h: 0.3 mg/kg; for effect on contralateral hindpaw withdrawal thresholds: hindpaw contralateral to SNE; for effect on SNE-induced mechanical allodynia (ipsilateral hindpaw withdrawal thresholds): systemic injection; for effect of pretreatment with the CBR blocker on the anti-allodynic effect of PrNMI: blocker before PrNMI 0.6 mg/kg, SNE rats
Description: The effectiveness of CBR agonists was tested for alleviating the painful symptoms of neuropathy induced by unilateral sciatic nerve entrapment (SNE)^131. The peripheral neuropathy induced by SNE is highly comparative to that of chronic constriction injury (CCI), which uses chromic gut suture materials instead of polyethylene cuffs^132. […] This increased excitability is at least in part attributable to injury-induced post-transcriptional transport of the voltage-gated sodium channel 1.8 (NaV1.8) mRNA, axonal accumulation of NaV1.8 mRNA, and its local protein translation leading to the increased NaV1.8 functional expression in injured nerve^136. The hyperexcitability and ectopic burst discharge of primary sensory neurons are widely considered to be the major contributors to pain symptomatology of peripheral neuropathy models. The SNE-induced mechanical allodynia effectively models the most common complaint of human neuropathy patients of dynamic mechanical allodynia. Behavioral measurements of mechanical sensitivity were conducted before and after induction of SNE as follows:
Rats are placed in a plastic-walled cage (10×20×13 cm) with a metal mesh floor (0.6×0.6 cm holes) and allowed to acclimate for 10 min. The amount of pressure (g) needed to evoke a hindpaw withdrawal response is measured 4 times on each paw separated by 30-s intervals using a von Frey-type digital meter (Model 1601C, IITC Instr.). Results of 4 tests/session are averaged for each paw.

[2] = molecular target: CB2R (Homo sapiens, UniProt P34972); assay: CB2R radioligand displacement binding assay (CP55940 radioligand)
CB2R, sequence (P34972 whole entry): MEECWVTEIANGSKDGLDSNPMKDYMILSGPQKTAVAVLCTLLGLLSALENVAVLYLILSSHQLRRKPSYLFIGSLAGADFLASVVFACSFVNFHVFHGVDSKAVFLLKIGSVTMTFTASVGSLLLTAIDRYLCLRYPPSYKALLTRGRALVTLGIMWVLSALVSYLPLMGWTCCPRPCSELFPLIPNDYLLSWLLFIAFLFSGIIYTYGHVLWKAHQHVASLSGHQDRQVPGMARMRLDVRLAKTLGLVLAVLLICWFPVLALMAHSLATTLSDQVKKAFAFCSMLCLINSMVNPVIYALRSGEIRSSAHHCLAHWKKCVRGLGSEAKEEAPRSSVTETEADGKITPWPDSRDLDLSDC
Description: Detailed radioligand displacement assays (using the well-characterized CBR agonist […] as the radioligand) were conducted to determine the affinity (Ki) of the test compounds for CB1R and CB2R as has been previously described by our group^112,113. Heterologous competition binding assays were performed to calculate receptor affinities. Unlabeled SR141716 or SR144528 were used as appropriate controls for non-specific binding (NSB) in the assay. Calculation of the equilibrium dissociation constant (Ki) was performed using the Cheng-Prusoff equation.

[3] = molecular target: CB1R (Homo sapiens, UniProt P21554); assay: CB1R radioligand displacement binding assay (CP55940 radioligand)
CB1R, sequence (P21554 whole entry): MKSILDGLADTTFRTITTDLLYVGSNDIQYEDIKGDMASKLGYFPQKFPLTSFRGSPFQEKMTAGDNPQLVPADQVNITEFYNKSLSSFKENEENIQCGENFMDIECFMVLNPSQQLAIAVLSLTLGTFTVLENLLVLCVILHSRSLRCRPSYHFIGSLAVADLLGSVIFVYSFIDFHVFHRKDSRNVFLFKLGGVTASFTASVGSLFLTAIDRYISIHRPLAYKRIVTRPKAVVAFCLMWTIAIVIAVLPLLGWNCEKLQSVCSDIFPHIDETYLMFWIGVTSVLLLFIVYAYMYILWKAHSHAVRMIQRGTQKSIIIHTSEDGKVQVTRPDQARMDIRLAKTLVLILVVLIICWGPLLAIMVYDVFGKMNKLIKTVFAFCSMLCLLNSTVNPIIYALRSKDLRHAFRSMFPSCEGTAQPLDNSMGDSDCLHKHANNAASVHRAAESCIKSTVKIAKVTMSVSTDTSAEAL
Description: Heterologous competition binding assays were performed to calculate receptor affinities. Unlabeled SR141716 or SR144528 were used as appropriate controls for non-specific binding (NSB) in the assay. Calculation of the equilibrium dissociation constant (Ki) was performed using the Cheng-Prusoff equation.

[4] = molecular target: human CB1R (hCB1R) (Homo sapiens, UniProt P21554); assay: human CB1R (hCB1R) calcium flux assay; type: cell-based; details: Table 1; read-out: Ca Flux % Emax
human CB1R (hCB1R), sequence (P21554 whole entry): as above
Source text: Compounds were first screened for: a) CB1R and CB2R binding, b) CB1R agonist activity using the human CB1R (hCB1R) calcium flux assay, and c) BBB permeability using the Madin-Darby canine kidney (MDCK-MDR1) cell line assay.
The calcium 3 dye assays were run according to manufacturer's specifications (http://www.moleculardevices.com/Products/Assay-Kits/GPCRs/FLIPR-Calcium.html) and as reported in our previous publications^112,113. Briefly, wells of black clear-bottom 96-well tissue culture-treated plates are seeded with 20,000 cells the afternoon before assay. The day of assay, the cells are incubated with the Ca^2+ indicator dye for 1 hr @ 37° C. For antagonist assays, the test compound is preincubated with the cells during the last 10 min of the dye incubation. Basal or unstimulated fluorescence intensity is recorded in the FlexStation @ 37° C. for 13 sec followed by the addition of test compound or CP 55,940 (depending on the assay endpoint). Fluorescence intensity is recorded for an additional 47 sec. The effect of test compound in each well is determined by subtracting the minimum from the maximum fluorescence during the 47-sec recording period.

[5] = Plasma stability assay; type: in vitro ADME; details: rat plasma, 10 μM
Description: Compounds are incubated at 10 μM in rat plasma at 37° C. A solution of each compound is prepared in ethanol at a concentration of 1 mM. A 2.5 μL volume of the 1 mM solution is added to 247.5 μL of rat plasma (male Sprague Dawley) in a glass test tube in a 37° C. water bath. Samples (50 μL) are removed at 0, 30 and 60 min and immediately extracted with 3 volumes (150 μL) of methanol. Samples are centrifuged (2500 rpm for 10 min at 4° C.) to pellet protein and supernatants transferred to LC/MS vials for analysis. Samples are stored at −80° C. prior to analysis.

[6] = S9 fraction stability assay; type: in vitro ADME; details: rat liver S9, 10 μM
Description: Compounds are incubated at 10 μM in rat (male Sprague Dawley) liver S9 at 37° C. Each compound is prepared in ethanol at a concentration of 1 mM. An assay mixture containing S9 (1 mg protein/mL final concentration) and an NADPH regenerating system (NADP [1 mM final], glucose 6-phosphate [5 mM final] and glucose 6-phosphate dehydrogenase [1 U/mL final]) in a buffer consisting of 50 mM KPO4 phosphate buffer, pH 7.4 with 3 mM MgCl2 is prepared and preincubated at 37° C. for 5 min. A 10 μL volume of the 1 mM solution is added to 990 μL of assay mixture in a glass test tube @ 37° C. to initiate the assay. Samples (50 μL) are removed at 0, 15, 30, 60 and 120 min and immediately extracted with 3 volumes (150 μL) of methanol, centrifuged to pellet protein and supernatants transferred to LC/MS vials for analysis.

[7] = test system: rats; assay: Hypothermia test of the tetrad; type: in vivo, rat; details: 2-3 hr
Description: Rats are acclimated to a plastic restrainer apparatus (Model RTV-180 Braintree Scientific Inc.) on the day of testing by placing them in the restrainer twice for 5 min separated by 20 min. Baseline core temperature is taken before treatment, and the rectal temperature is measured again at various times after injection of the CB1R ligands.

[8] = test system: rats; assay: Rotarod test of the tetrad; type: in vivo, rat
Description: Rats were tested for motor function and the ataxic effects of novel drugs as described previously^151-153. To determine drug effects on motor coordination, rats are trained 72 h before the test (3 sessions 24 h apart) to remain for at least 180 s on a rotarod revolving at an acceleration of 4-40 revs over 5 min). Rats are tested immediately before vehicle or drug injections and tested again at 2, 6, 24 and 48 hrs after injection. The time for which the rats are able to remain on the rotarod is recorded up to a cut-off of 5 min.

[9] = test system: rats; assay: Catalepsy (ring) test of the tetrad; type: in vivo, rat
Description: Catalepsy (ring) test. Catalepsy was determined with a ring immobility test^154, modified for rats^139, 153. Rats are placed with their forepaws on a horizontal metal ring (12 cm diameter) at a height that allows their hindpaws to just touch the bench surface. Immobility is recorded as the time for the rat to move off the ring with a 100 s cutoff. Rats are tested before vehicle/drug injections and again at various times after injection.

[10] = Table 1, CP55940 radioligand, read-out: CB2_KI_CP
[11] = Table 1, CP55940 radioligand, read-out: CB1_KI_CP
[12] = read-out: CB1R binding affinity (Ki)

Row | Compound | Ki [2, 10] [nM] | Ki [3, 11] [nM] | Ki [2] [nM] | Plasma % remaining @ xy min ([5]; 60 min) | S9% remaining @ xy min ([6]; 60 min) | other results
1 | 4-{2-[(1E)-2-[(4- methoxy- naphthalen-1- yl)methylidene]- 1H-inden-3- yl]ethyl} morpholine [Compound 10] | – | – | – | – | – | effect on contralateral hindpaw withdrawal thresholds [1]: Neither ENMI nor 13339-135-25 had any significant effect
2 | CCc1ccc(/C=C2\C=C(CCN3CCOCC3)c3ccccc32)c2ccccc12 [Compound 8, 4-{2-[(1E)-1-[(4-ethylnaphthalen-1-yl)methylidene]-1H-inden-3-yl]ethyl} morpholine] | 0.79 | 0.86 | – | – | – | Ki [3]: 1 nM; Emax [4]: 121%
3 | C1=C(CCN2CCOCC2)c2ccccc2/C1=C/c1cccc2ccccc12 [Compound 11, 4-{2-[(1E)-1-(naphthalen-1-ylmethylidene)-1H-inden-3-yl]ethyl} morpholine] | 5.62 | – | – | – | – | Plasma % remaining @ xy min ([5]; 30 min): 95 @ 30%; S9% remaining @ xy min ([6]; 30 min): 35 @ 30%; Ki [3, 12]: 4.69 nM; Emax [4]: 103%; Hypothermia % change from predrug (0.3 mg/kg) at 2-3 hr [7]: 0%; effect in the rotarod assay ([8]; 0.3 mg/kg, intraperitoneal): complete lack of effects; Rotarod % change from pre-drug (0.3 mg/kg) at 2-3 hr ([8]; 2-3 hr): 0%; effect on SNE-induced mechanical allodynia (ipsilateral hindpaw withdrawal thresholds) [1]: anti-allodynic effects; SNE Neuropath Assay-% return to pre-drug (0.3 mg/kg) contralateal threshold at 2-3 h [1]: 37.8%; effect on contralateral hindpaw withdrawal thresholds [1]: Neither ENMI nor 13339-135-25 had any significant effect; effect in the catalepsy assay ([9]; 0.3 mg/kg, intraperitoneal): complete lack of effects; Catalepsy % change from pre-drug (0.3 mg/kg) at 1-3 hrs ([9]; 1-3 hrs): 0%
4 | CCCCCn1cc(C(=O)c2ccc(C(=O)OC)c3ccccc23)c2ccccc21 [Compound 54, methyl 4-(1-pentyl-1H-indole-3-carbonyl) naphthalene-1-carboxylate] | – | – | 73.4 | – | – | Plasma % remaining @ xy min ([5]; 30 min): 9.6 @ 30%; S9% remaining @ xy min ([6]; 30 min): 2.62 @ 30%; S9% remaining @ xy min ([6]; 30 min, listed as 4-carbomethoxy ester): 3%; Ki [3, 12]: 20 nM; SNE Neuropath Assay-% return to pre-drug (0.3 mg/kg) contralateal threshold at 2-3 h [1]: 0%
5 | COC(=O)c1ccc(C(=O)c2cn(CCN3CCOCC3)c3ccccc23)c2ccccc12 [Compound 56, methyl 4-{1-[2-(morpholin-4-yl)ethyl]-1H-indole-3-carbonyl} naphthalene-1-carboxylate] | – | 52.4 | 61.4 | 0 @ 60% | 0 @ 60% | –
6 | CCCCCn1cc(C(=O)c2ccc(C(=O)CC)c3ccccc23)c2ccccc21 [Compound 61, 1-[4-(1-pentyl-1H-indole-3-carbonyl)naphthalen-1-yl]propan-1-one] | – | 5.71 | 32.7 | 75 @ 60% | 3 @ 60% | –
7 | CCCCCn1cc(C(=O)c2cccc3ccccc23)c2c(F)cccc21 [Compound 62, 4-fluoro-3-(naphthalene-1-carbonyl)-1-pentyl-1H-indole] | 35.6 | 6.5 | – | 69 @ 60% | 5 @ 60% | –
8 | CCCCCn1cc(C(=O)c2cccc3ccccc23)c2cc(F)ccc21 [Compound 63, 5-fluoro-3-(naphthalene-1-carbonyl)-1-pentyl-1H-indole] | 65 | 9.85 | – | 99 @ 60% | 13 @ 60% | –
9 | CCCCCn1cc(C(=O)c2cccc3ccccc23)c2ccc(F)cc21 [Compound 64, 6-fluoro-3-(naphthalene-1-carbonyl)-1-pentyl-1H-indole] | 16.4 | 2.35 | – | – | – | effect on SNE-induced mechanical allodynia (ipsilateral hindpaw withdrawal thresholds) [1]: anti-allodynic effects; SNE Neuropath Assay-% return to pre-drug (0.3 mg/kg) contralateal threshold at 2-3 h [1]: 54.4%
10 | CCCc1ccc(C(=O)c2cn(CCCCCF)c3cccc(F)c23)c2ccccc12 [Compound 67, 4-fluoro-1-(5-fluoropentyl)-3-(4-propyl-naphthalene-1-carbonyl)-1H-indole] | – | 2.55 | 3.61 | 95 @ 60% | 6 @ 60% | –
11 | Cc1c(C(=O)NN2CCCCC2)nn(-c2ccc(Cl)cc2Cl)c1-c1ccc(Cl)cc1 [SR141617A, rimonabant, reference compound] | – | – | – | – | – | effect of pretreatment with the CBR blocker on the anti-allodynic effect of PrNMI [1]: completely blocked
12 | SR144528 [reference compound] | – | – | – | – | – | effect of pretreatment with the CBR blocker on the anti-allodynic effect of PrNMI [1]: little effect

— patent publication US9656981B2, “Peripherally-acting cannabinoid receptor agonists for chronic pain” (The Regents of the University of California, priority 2012, dated 2017)
